Measurements taken from US20050148627A1, “Benzopyran compounds for use in the treatment and prevention of inflammation related conditions” (priority 2003, published 2005).
Several values for one entry are separate records, joined by “and”; a condition that tells them apart may be missing. Identical values can stand only once.

Molecular target: COX-1 (Homo sapiens, UniProt P23219)
Experiment: biochemical
Experimental: Evaluation of COX-1 and COX-2 Activity In Vitro
b. Assay for COX-1 and COX-2 Activity
COX activity was assayed as PGE2 formed/μg protein/time using an ELISA to detect the prostaglandin released. CHAPS-solubilized insect cell membranes containing the appropriate COX enzyme were incubated in a potassium phosphate buffer (50 mM, pH 8.0) containing epinephrine, phenol, and heme with the addition of arachidonic acid (10 μM). Compounds were pre-incubated with the enzyme for 10-20 minutes prior to the addition of arachidonic acid. […] The PGE2 formed was measured by standard ELISA technology (Cayman Chemical).

Sequence of COX-1 (P23219 24-599): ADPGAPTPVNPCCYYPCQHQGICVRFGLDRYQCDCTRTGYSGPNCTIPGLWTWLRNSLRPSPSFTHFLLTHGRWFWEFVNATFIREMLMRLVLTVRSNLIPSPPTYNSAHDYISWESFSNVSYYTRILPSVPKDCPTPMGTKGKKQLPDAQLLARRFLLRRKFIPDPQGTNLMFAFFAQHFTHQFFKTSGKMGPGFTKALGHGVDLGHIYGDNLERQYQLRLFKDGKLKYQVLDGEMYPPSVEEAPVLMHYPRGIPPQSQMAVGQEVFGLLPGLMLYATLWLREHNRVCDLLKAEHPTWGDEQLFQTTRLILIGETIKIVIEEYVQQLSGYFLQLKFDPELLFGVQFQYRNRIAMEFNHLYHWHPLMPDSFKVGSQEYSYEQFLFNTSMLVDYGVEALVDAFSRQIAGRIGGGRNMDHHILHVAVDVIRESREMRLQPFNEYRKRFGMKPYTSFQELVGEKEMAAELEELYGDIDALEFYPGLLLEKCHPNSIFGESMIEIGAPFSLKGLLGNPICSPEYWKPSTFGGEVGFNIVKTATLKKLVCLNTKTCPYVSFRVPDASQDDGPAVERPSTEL

For `CCCc1cc(OC(F)(F)F)cc2c1OC(C(F)(F)F)C(C(=O)O)=C2` (racemic) [Example 21i, 8-propyl-6-(trifluoromethoxy)-2-(trifluoromethyl)-2H-chromene-3-carboxylic acid], which IC50 is on record?
The IC50 was 20.5 µM and 13.6 µM.

Which IC50 does the source give for `Cc1cc(C)c2c(c1)C=C(C(=O)O)C(C(F)(F)F)O2` (racemic) [Example 32a, 6,8-dimethyl-2-(trifluoromethyl)-2H-chromene-3-carboxylic acid] here?
The IC50 was > 100 µM and 185 µM and 204 µM and 165 µM and 128 µM.

How did the IC50 turn out when `O=C(O)C1=Cc2cc(Cl)c(Cc3ccccc3)cc2O[C@H]1C(F)(F)F` (single isomer, unassigned) [Example 9l] was run?
Its IC50 is 3.05 µM and 2.38 µM.

`O=C(O)C1=Cc2cc(Cl)c(Cc3ccccc3)cc2O[C@@H]1C(F)(F)F` (single isomer, unassigned) [Example 9m] was tested. Which IC50 did it give?
The IC50 was 24.1 µM.

Which IC50 does the source give for `COc1cc(Cl)c2c(c1)C=C(C(=O)O)[C@H](C(F)(F)F)O2` (single isomer, unassigned) [Example 17h] here?
Its IC50 is > 100 µM.

How did the IC50 turn out when `COc1cc(Cl)c2c(c1)C=C(C(=O)O)[C@@H](C(F)(F)F)O2` (single isomer, unassigned) [Example 17i] was run?
Its IC50 is 81.1 µM and 36.4 µM.

With `CCc1cc(OC(F)(F)F)cc2c1O[C@H](C(F)(F)F)C(C(=O)O)=C2` (single isomer, unassigned) [Example 21k] as the molecule, how does the IC50 read?
Its IC50 is 23.4 µM and 27 µM and 9.26 µM and 11 µM.

Which IC50 does the source give for `CCc1cc(OC(F)(F)F)cc2c1O[C@@H](C(F)(F)F)C(C(=O)O)=C2` (single isomer, unassigned) [Example 21l] here?
The IC50 was > 100 µM and 115 µM and 49.6 µM.

Which IC50 does the source give for `Cc1cc(Cl)cc2c1O[C@H](C(F)(F)F)C(C(=O)O)=C2` (single isomer, unassigned) [Example 21t] here?
The IC50 was 32.3 µM and 7.18 µM and 6.42 µM and 8.06 µM and 18.4 µM.

For `Cc1cc(Cl)cc2c1O[C@@H](C(F)(F)F)C(C(=O)O)=C2` (single isomer, unassigned) [Example 21u], which IC50 is on record?
The IC50 was > 100 µM.

Which IC50 does the source give for `Cc1cc(C)c2c(c1)C=C(C(=O)O)[C@@H](C(F)(F)F)O2` (single isomer, unassigned) [Example 32b] here?
Its IC50 is > 100 µM.

How did the IC50 turn out when `CCc1ccc2c(c1)C=C(C(=O)O)[C@@H](C(F)(F)F)O2` (single isomer, unassigned) [Example 34b] was run?
Its IC50 is 57.9 µM and 35.5 µM.

With `CCc1ccc2c(c1)C=C(C(=O)O)C(C(F)(F)F)O2` (stereo in doubt) [Example 34c, (2R)-6-ethyl-2-(trifluoromethyl)-2H-chromene-3-carboxylic acid] as the molecule, how does the IC50 read?
The IC50 was > 100 µM.

Which IC50 does the source give for `O=C(O)C1=Cc2cc(Cl)c(O)c(Cl)c2OC1C(F)(F)F` (stereo not drawn) [Example 1a, 6,8-dichloro-7-hydroxy-2-(trifluoromethyl)-2H-chromene-3-carboxylic acid] here?
The IC50 was > 500 µM.

For `O=C(O)C1=Cc2cc(Cl)c(OCC3CCCC3)c(Cl)c2OC1C(F)(F)F` (stereo not drawn) [Example 1c, 6,8-dichloro-7-(cyclopentylmethoxy)-2-(trifluoromethyl)-2H-chromene-3-carboxylic acid], which IC50 is on record?
The IC50 was 0.543 µM and 0.143 µM.

`CC(C)(C)CCOc1c(Cl)cc2c(c1Cl)OC(C(F)(F)F)C(C(=O)O)=C2` (stereo not drawn) [Example 1d, 6,8-dichloro-7-(3,3-dimethylbutoxy)-2-(trifluoromethyl)-2H-chromene-3-carboxylic acid] was tested. Which IC50 did it give?
The IC50 was 49.2 µM.

Which IC50 does the source give for `O=C(O)C1=Cc2cc(Cl)c(OCc3ccccc3)c(Cl)c2OC1C(F)(F)F` (stereo not drawn) [Example 1g, 7-(benzyloxy)-6,8-dichloro-2-(trifluoromethyl)-2H-chromene-3-carboxylic acid] here?
The IC50 was 21 µM.

How did the IC50 turn out when `CC(C)(C)Oc1c(Cl)cc2c(c1Cl)OC(C(F)(F)F)C(C(=O)O)=C2` (stereo not drawn) [Example 1h, 7-tert-butoxy-6,8-dichloro-2-(trifluoromethyl)-2H-chromene-3-carboxylic acid] was run?
The IC50 was < 0.137 µM.

For `Nc1ccc(Oc2cc3c(cc2Cl)C=C(C(=O)O)C(C(F)(F)F)O3)c(F)c1` (stereo not drawn) [Example 2a, 7-(4-amino-2-fluorophenoxy)-6-chloro-2-(trifluoromethyl)-2H-chromene-3-carboxylic acid], which IC50 is on record?
Its IC50 is < 0.137 µM and 0.347 µM and 0.112 µM.

Which IC50 does the source give for `CCC(CC)COc1cc2c(cc1Cl)C=C(C(=O)O)C(C(F)(F)F)O2` (stereo not drawn) [Example 2c, 6-chloro-7-(2-ethylbutoxy)-2-(trifluoromethyl)-2H-chromene-3-carboxylic acid] here?
The IC50 was 51.6 µM.

For `O=C(O)C1=Cc2cc(Cl)c(OCC3CCCC3)cc2OC1C(F)(F)F` (stereo not drawn) [Example 2d, 6-chloro-7-(cyclopentylmethoxy)-2-(trifluoromethyl)-2H-chromene-3-carboxylic acid], which IC50 is on record?
Its IC50 is 44.3 µM.

`CC(C)(C)CCOc1cc2c(cc1Cl)C=C(C(=O)O)C(C(F)(F)F)O2` (stereo not drawn) [Example 2e, 6-chloro-7-(3,3-dimethylbutoxy)-2-(trifluoromethyl)-2H-chromene-3-carboxylic acid] was tested. Which IC50 did it give?
The IC50 was 68.8 µM.

For `O=C(O)C1=Cc2cc(Cl)c(OCc3ccccc3)cc2OC1C(F)(F)F` (stereo not drawn) [Example 2f, 7-(benzyloxy)-6-chloro-2-(trifluoromethyl)-2H-chromene-3-carboxylic acid], which IC50 is on record?
The IC50 was > 100 µM.

How did the IC50 turn out when `CC(C)(C)Oc1cc2c(cc1Cl)C=C(C(=O)O)C(C(F)(F)F)O2` (stereo not drawn) [Example 2g, 7-tert-butoxy-6-chloro-2-(trifluoromethyl)-2H-chromene-3-carboxylic acid] was run?
Its IC50 is > 500 µM.

Which IC50 does the source give for `COCCOc1cc2c(cc1Cl)C=C(C(=O)O)C(C(F)(F)F)O2` (stereo not drawn) [Example 2h, 6-chloro-7-(2-methoxyethoxy)-2-(trifluoromethyl)-2H-chromene-3-carboxylic acid] here?
Its IC50 is > 100 µM.

With `COc1cc2c(cc1Cl)C=C(C(=O)O)C(C(F)(F)F)O2` (stereo not drawn) [Example 2i, 6-chloro-7-methoxy-2-(trifluoromethyl)-2H-chromene-3-carboxylic acid] as the molecule, how does the IC50 read?
Its IC50 is > 100 µM and 187 µM.

Which IC50 does the source give for `COc1c(Cl)cc2c(c1C)OC(C(F)(F)F)C(C(=O)O)=C2` (stereo not drawn) [Example 3a, 6-chloro-7-methoxy-8-methyl-2-(trifluoromethyl)-2H-chromene-3-carboxylic acid] here?
Its IC50 is > 100 µM.

`CCC(CC)COc1c(Cl)cc2c(c1C)OC(C(F)(F)F)C(C(=O)O)=C2` (stereo not drawn) [Example 3b, 6-chloro-7-(2-ethylbutoxy)-8-methyl-2-(trifluoromethyl)-2H-chromene-3-carboxylic acid] was tested. Which IC50 did it give?
The IC50 was 15.8 µM and 6.7 µM.

With `CCCOc1c(Cl)cc2c(c1C)OC(C(F)(F)F)C(C(=O)O)=C2` (stereo not drawn) [Example 3c, 6-chloro-8-methyl-7-propoxy-2-(trifluoromethyl)-2H-chromene-3-carboxylic acid] as the molecule, how does the IC50 read?
The IC50 was 2.3 µM.

Which IC50 does the source give for `Cc1c(OCC2CC2)c(Cl)cc2c1OC(C(F)(F)F)C(C(=O)O)=C2` (stereo not drawn) [Example 3d, 6-chloro-7-(cyclopropylmethoxy)-8-methyl-2-(trifluoromethyl)-2H-chromene-3-carboxylic acid] here?
The IC50 was < 0.137 µM.

For `Cc1c(OCC(C)C)c(Cl)cc2c1OC(C(F)(F)F)C(C(=O)O)=C2` (stereo not drawn) [Example 3e, 6-chloro-7-isobutoxy-8-methyl-2-(trifluoromethyl)-2H-chromene-3-carboxylic acid], which IC50 is on record?
The IC50 was < 0.137 µM.

With `CCCCOc1c(Cl)cc2c(c1C)OC(C(F)(F)F)C(C(=O)O)=C2` (stereo not drawn) [Example 3f, 7-butoxy-6-chloro-8-methyl-2-(trifluoromethyl)-2H-chromene-3-carboxylic acid] as the molecule, how does the IC50 read?
The IC50 was 7.09 µM and 9.55 µM and 9.09 µM.

For `Cc1c(OCC(C)(C)C)c(Cl)cc2c1OC(C(F)(F)F)C(C(=O)O)=C2` (stereo not drawn) [Example 3g, 6-chloro-8-methyl-7-(neopentyloxy)-2-(trifluoromethyl)-2H-chromene-3-carboxylic acid], which IC50 is on record?
Its IC50 is 74.4 µM and 81.2 µM.

How did the IC50 turn out when `Cc1c(OCCC(C)C)c(Cl)cc2c1OC(C(F)(F)F)C(C(=O)O)=C2` (stereo not drawn) [Example 3h, 6-chloro-7-(isopentyloxy)-8-methyl-2-(trifluoromethyl)-2H-chromene-3-carboxylic acid] was run?
Its IC50 is 17 µM and 18.5 µM and 18.4 µM.

How did the IC50 turn out when `Cc1c(O)c(Cl)cc2c1OC(C(F)(F)F)C(C(=O)O)=C2` (stereo not drawn) [Example 3i, 6-chloro-7-hydroxy-8-methyl-2-(trifluoromethyl)-2H-chromene-3-carboxylic acid] was run?
The IC50 was > 97.6 µM.

How did the IC50 turn out when `COc1ccc2c(c1OC)OC(C(F)(F)F)C(C(=O)O)=C2` (stereo not drawn) [Example 4a, 7,8-dimethoxy-2-(trifluoromethyl)-2H-chromene-3-carboxylic acid] was run?
The IC50 was > 500 µM.

For `COc1c(Cl)cc2c(c1OC)OC(C(F)(F)F)C(C(=O)O)=C2` (stereo not drawn) [Example 4b, 6-chloro-7,8-dimethoxy-2-(trifluoromethyl)-2H-chromene-3-carboxylic acid], which IC50 is on record?
Its IC50 is > 500 µM.

For `O=C(O)C1=Cc2ccc(Oc3ccc([N+](=O)[O-])cc3F)cc2OC1C(F)(F)F` (stereo not drawn) [Example 5a, 7-(2-fluoro-4-nitrophenoxy)-2-(trifluoromethyl)-2H-chromene-3-carboxylic acid], which IC50 is on record?
The IC50 was > 100 µM and 264 µM and 199 µM.

`CC(C)(C)Oc1ccc2c(c1)OC(C(F)(F)F)C(C(=O)O)=C2` (stereo not drawn) [Example 5b, 7-tert-butoxy-2-(trifluoromethyl)-2H-chromene-3-carboxylic acid] was tested. Which IC50 did it give?
The IC50 was > 500 µM.

Which IC50 does the source give for `COc1ccc2c(c1C)OC(C(F)(F)F)C(C(=O)O)=C2` (stereo not drawn) [Example 5c, 7-methoxy-8-methyl-2-(trifluoromethyl)-2H-chromene-3-carboxylic acid] here?
The IC50 was > 100 µM and 478 µM.

With `CCC(CC)COc1ccc2c(c1C)OC(C(F)(F)F)C(C(=O)O)=C2` (stereo not drawn) [Example 5d, 7-(2-ethylbutoxy)-8-methyl-2-(trifluoromethyl)-2H-chromene-3-carboxylic acid] as the molecule, how does the IC50 read?
Its IC50 is 31.9 µM and 17.2 µM.

With `COCCOc1ccc2c(c1)OC(C(F)(F)F)C(C(=O)O)=C2` (stereo not drawn) [Example 5e, 7-(2-methoxyethoxy)-2-(trifluoromethyl)-2H-chromene-3-carboxylic acid] as the molecule, how does the IC50 read?
The IC50 was > 100 µM.

With `O=C(O)C1=Cc2ccc(OCc3ccco3)cc2OC1C(F)(F)F` (stereo not drawn) [Example 5f, 7-(2-furylmethoxy)-2-(trifluoromethyl)-2H-chromene-3-carboxylic acid] as the molecule, how does the IC50 read?
The IC50 was > 100 µM.

`O=C(O)COc1ccc2c(c1)OC(C(F)(F)F)C(C(=O)O)=C2` (stereo not drawn) [Example 5g, 7-(carboxymethoxy)-2-(trifluoromethyl)-2H-chromene-3-carboxylic acid] was tested. Which IC50 did it give?
The IC50 was > 100 µM.

For `Cc1c(Cl)cc(C(C)C)c2c1C=C(C(=O)O)C(C(F)(F)F)O2` (stereo not drawn) [Example 6, 6-chloro-8-isopropyl-5-methyl-2-(trifluoromethyl)-2H-chromene-3-carboxylic acid], which IC50 is on record?
Its IC50 is > 100 µM and 188 µM and 194 µM.

Which IC50 does the source give for `CCSc1cc2c(cc1Cl)C=C(C(=O)O)C(C(F)(F)F)O2` (stereo not drawn) [Example 7a, 6-chloro-7-(ethylthio)-2-(trifluoromethyl)-2H-chromene-3-carboxylic acid] here?
Its IC50 is > 100 µM.

How did the IC50 turn out when `CC(C)CCSc1cc2c(cc1Cl)C=C(C(=O)O)C(C(F)(F)F)O2` (stereo not drawn) [Example 7b, 6-chloro-7-(isopentylthio)-2-(trifluoromethyl)-2H-chromene-3-carboxylic acid] was run?
The IC50 was > 100 µM.

`CCCSc1cc2c(cc1Cl)C=C(C(=O)O)C(C(F)(F)F)O2` (stereo not drawn) [Example 7c, 6-chloro-7-(propylthio)-2-(trifluoromethyl)-2H-chromene-3-carboxylic acid] was tested. Which IC50 did it give?
The IC50 was > 100 µM.
